Holding throughout (assay type): cell-based
Assay [1] addresses T1, TYK2 (Homo sapiens, UniProt P29597). As to the kind of experiment: TYK2 degradation MSD assay in human PBMC cells. More on the design: endogenous in cells; host or cells: human PBMC. Conditions: 4 to 24 hours incubation, read-out: TYK2 MSD DC50 rating in human PBMC. An outline of the steps:
(§1)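 Cells (0.4 million per well) were treated with a 9-point, 1:3 compound series from a top concentration of 1 to 10 μM for 4 to 24 hours at 37° C, then lysed in RIPA with protease/phosphatase inhibitors. Remaining TYK2 was quantified by sandwich MSD immunoassay; DC50 came from four-parameter nonlinear fits.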

The target of assay [2] is T1, TYK2. Description: TYK2 degradation MSD assay in EBV-B cells. Also noted: endogenous in cells; host or cells: EBV-B cells. Conditions: 4 to 24 hours incubation, read-out: TYK2 MSD DC50 rating in EBV-B. The method, boiled down: as §1
The target in assay [3] is T1, TYK2. Description: TYK2 degradation MSD assay in OCI-LY10 cells. Conditions: 4 to 24 hours incubation, read-out: TYK2 MSD DC50 rating in OCI-LY10. More on the design: endogenous in cells; host or cells: EBV-B cells. The method, boiled down: as §1

T1 sequence (P29597 whole entry): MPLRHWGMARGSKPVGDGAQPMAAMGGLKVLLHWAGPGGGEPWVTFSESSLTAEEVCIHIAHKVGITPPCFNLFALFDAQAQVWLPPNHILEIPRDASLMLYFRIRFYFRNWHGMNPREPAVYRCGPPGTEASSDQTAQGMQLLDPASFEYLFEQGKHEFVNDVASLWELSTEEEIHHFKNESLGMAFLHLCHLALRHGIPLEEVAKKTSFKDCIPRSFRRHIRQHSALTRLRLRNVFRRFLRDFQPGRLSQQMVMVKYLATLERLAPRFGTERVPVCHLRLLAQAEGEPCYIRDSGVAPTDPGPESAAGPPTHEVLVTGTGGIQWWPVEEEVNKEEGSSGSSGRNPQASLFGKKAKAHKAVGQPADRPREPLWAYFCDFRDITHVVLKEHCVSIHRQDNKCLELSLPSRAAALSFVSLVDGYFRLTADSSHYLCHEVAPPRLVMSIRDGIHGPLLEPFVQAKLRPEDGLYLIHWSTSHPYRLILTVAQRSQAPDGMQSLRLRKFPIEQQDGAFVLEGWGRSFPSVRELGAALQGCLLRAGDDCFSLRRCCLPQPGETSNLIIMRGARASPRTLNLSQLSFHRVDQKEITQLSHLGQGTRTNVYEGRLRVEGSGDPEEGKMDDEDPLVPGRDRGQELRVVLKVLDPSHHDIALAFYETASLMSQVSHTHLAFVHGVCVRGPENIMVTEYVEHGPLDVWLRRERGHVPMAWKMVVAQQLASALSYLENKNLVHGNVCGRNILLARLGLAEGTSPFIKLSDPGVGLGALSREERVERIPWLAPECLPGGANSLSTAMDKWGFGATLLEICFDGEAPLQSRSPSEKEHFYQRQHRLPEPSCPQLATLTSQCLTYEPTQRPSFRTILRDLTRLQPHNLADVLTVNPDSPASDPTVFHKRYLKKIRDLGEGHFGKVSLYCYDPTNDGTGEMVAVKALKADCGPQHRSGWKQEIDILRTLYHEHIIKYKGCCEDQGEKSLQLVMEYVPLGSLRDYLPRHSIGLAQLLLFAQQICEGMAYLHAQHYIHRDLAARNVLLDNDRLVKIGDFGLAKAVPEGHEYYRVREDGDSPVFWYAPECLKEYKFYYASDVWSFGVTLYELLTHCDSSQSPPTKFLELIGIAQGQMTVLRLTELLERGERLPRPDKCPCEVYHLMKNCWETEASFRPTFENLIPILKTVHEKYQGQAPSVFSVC

On to `CNc1cc(Nc2cccnc2OCC2CCN(C3CCN(c4ccc5c(c4)n(C)c(=O)n5C4CCC(=O)NC4=O)CC3)CC2)nn2c(C(=O)NC3CC3F)cnc12` (stereo not drawn) [Example K659], for which the DC50 was more than 100 nM on TYK2 [1], more than 100 nM at TYK2 [2] and 1 to 10 nM at TYK2 [3].
For `CNc1cc(Nc2cccc(-c3ccc(CN4CCC(N5CCN(c6ccc7c(c6)n(C)c(=O)n7C6CCC(=O)NC6=O)CC5)C(F)(F)C4)cn3)c2OC)nn2c(C(=O)NC3CC3F)cnc12` (stereo not drawn) [Example K660], the figures for the DC50 on TYK2 [1], on TYK2 [2] and on TYK2 [3] were more than 100 nM, more than 100 nM and less than 1 nM, respectively.
`CNC(=O)c1cnc(Nc2ccc(CN3CCC(N(C)c4cccc5c4n(C)c(=O)n5C4CCC(=O)NC4=O)CC3)cn2)cc1Nc1cccc(-c2ncc(F)cn2)c1OC` (stereo not drawn) [Example K700]: the DC50 on TYK2 [1] is less than 1 nM; on TYK2 [2] it was more than 100 nM; at TYK2 [3], less than 1 nM.
With `CNC(=O)c1cnc(Nc2ccc(CN3CCN(CC#Cc4ccc5c(c4)n(C)c(=O)n5C4CCC(=O)NC4=O)CC3)cn2)cc1Nc1cccc(-c2ncc(F)cn2)c1OC` (stereo not drawn) [Example K701], the DC50 at TYK2 [1] was less than 1 nM; at TYK2 [2] it was more than 100 nM; at TYK2 [3], less than 1 nM.
As for `CNC(=O)c1cnc(Nc2ccc(N3CCN(c4cccc5c4n(C)c(=O)n5C4CCC(=O)NC4=O)CC3)cn2)cc1Nc1cccc(-c2ncc(F)cn2)c1OC` (stereo not drawn) [Example K702], the values for the DC50 on TYK2 [1], on TYK2 [2] and at TYK2 [3] were more than 100 nM, 1 to 10 nM and more than 100 nM, respectively.
For `CNC(=O)c1cnc(Nc2ccc(C3CN(Cc4cccc5c4n(C)c(=O)n5C4CCC(=O)NC4=O)C3)cn2)cc1Nc1cccc(-c2ncc(F)cn2)c1OC` (stereo not drawn) [Example K703], the DC50 was more than 100 nM at TYK2 [1], less than 1 nM at TYK2 [2] and more than 100 nM on TYK2 [3].
For `CNC(=O)c1cnc(Nc2ccc(CN(C)C3CCN(c4cccc5c4n(C)c(=O)n5C4CCC(=O)NC4=O)CC3)cn2)cc1Nc1cccc(-c2ncc(F)cn2)c1OC` (stereo not drawn) [Example K704], the values for the DC50 on TYK2 [1], at TYK2 [2] and at TYK2 [3] were more than 100 nM, less than 1 nM and less than 1 nM, respectively.
In the case of `CNC(=O)c1cnc(Nc2ccc(CN3CCC(N(C)c4cccc5c4n(C)c(=O)n5C4CCC(=O)NC4=O)C3)cn2)cc1Nc1cccc(-c2ncc(F)cn2)c1OC` (stereo not drawn) [Example K705], the DC50 on TYK2 [1] was more than 100 nM; at TYK2 [2], less than 1 nM; on TYK2 [3], more than 100 nM.
For `CNC(=O)c1cnc(Nc2ccc(C(=O)NCCCCc3ccc4c(c3)n(C)c(=O)n4C3CCC(=O)NC3=O)cn2)cc1Nc1ccccc1OC` (stereo not drawn) [Example K706], the DC50 at TYK2 [1], on TYK2 [2] and on TYK2 [3] was more than 100 nM each time.
As for `CNC(=O)c1cnc(Nc2ccc(C3CN(Cc4ccc5c(c4)n(C)c(=O)n5C4CCC(=O)NC4=O)C3)cn2)cc1Nc1cccc(-c2ncc(F)cn2)c1OC` (stereo not drawn) [Example K707], the DC50 on TYK2 [1] was more than 100 nM; at TYK2 [2], 1 to 10 nM; at TYK2 [3], more than 100 nM.
As for `CNC(=O)c1cnc(Nc2ccc(CN3CCC(OCC#Cc4ccc5c(c4)n(C)c(=O)n5C4CCC(=O)NC4=O)CC3)cn2)cc1Nc1cccc(-c2ncc(F)cn2)c1OC` (stereo not drawn) [Example K708], the DC50 on TYK2 [1] was more than 100 nM; on TYK2 [2], less than 1 nM; at TYK2 [3] it was more than 100 nM.
For `CCNC(=O)c1cnc(Nc2cc(CN3CCN(c4ccc5c(c4)n(C)c(=O)n5C4CCC(=O)NC4=O)CC3)ccn2)cc1Nc1cccc(-c2ncc(F)cn2)c1OC` (stereo not drawn) [Example K709], the DC50 at TYK2 [1] was more than 100 nM; at TYK2 [2] it was 1 to 10 nM; on TYK2 [3] it was more than 100 nM.
Turning to `[2H]C([2H])([2H])NC(=O)c1nnc(Nc2ccc(C(=O)N(C)C3CCN(c4cccc5c4n(C)c(=O)n5C4CCC(=O)NC4=O)CC3)cn2)cc1Nc1cccc(F)c1OC` (stereo not drawn) [Example K710], the DC50 on TYK2 [1] was more than 100 nM; at TYK2 [2] it was less than 1 nM; on TYK2 [3], more than 100 nM.
With `[2H]C([2H])([2H])NC(=O)c1nnc(Nc2ccc(CN3CCN(c4ccc5c(c4)n(C)c(=O)n5C4CCC(=O)NC4=O)CC3)cn2)cc1Nc1cccc(F)c1OC` (stereo not drawn) [Example K711], the DC50 at TYK2 [1], on TYK2 [2] and on TYK2 [3] was more than 100 nM each time.
In the case of `[2H]C([2H])([2H])NC(=O)c1nnc(Nc2ccc(CN(C)CC3CCN(c4ccc5c(c4)n(C)c(=O)n5C4CCC(=O)NC4=O)CC3)cn2)cc1Nc1cccc(F)c1OC` (stereo not drawn) [Example K712], the figures for the DC50 on TYK2 [1], at TYK2 [2] and at TYK2 [3] were more than 100 nM, less than 1 nM and more than 100 nM, respectively.

These data come from patent US20250051338A1, “TYK2 DEGRADERS AND USES THEREOF” (Kymera Therapeutics, Inc., priority 2021, published 2025).
